Measurements published in patent publication US4474806A, “Sulfonyl or carbonyl inositol derivatives useful as anti-inflammatory/analgesic agents” (Merck & Co., Inc., priority 1982, dated 1984).

How the values were obtained:
[1] = tested on: Phosphatidyl inositol-specific phospholipase C; assay: Phosphatidyl inositol-specific phospholipase C assay with sonicated human platelets, release of water-soluble 3H-inositol counts; format: biochemical; conditions: 250 μm PI, 10 minutes
Protocol: This invention also relates to a method of treating inflammation in patients using a compound of Formula (I) as the active constituent.
A. Protocol - Phosphatidyl inositol-specific
phospholipase C assays. The assays were performed as
follows: A mixture of PI (Sigma) and
(^3 H--inositol)-PI in CHCl3 are blown to dryness
under N2 and sonicated into a buffer containing DOC
and CaCl2 so that the final concentrations in each
0.5 mg/ml DOC containing an appropriate amount of
in 50 mM Hepes, 100 mM NaCl, 0.5 mg/ml BSA pH 7.
An aliquot of sonicated human platelets,
5 × 10^9 /ml, is added; the reaction is stopped after
10 minutes with a chloroform/methanol/H2 O solution
and the upper water phase is counted to detect
water-soluble inositol counts. The pH was checked
during each assay using pH paper to verify that none
of the compounds affected this parameter.

phospholipase C = conditions: background statement, no concentration given; cited from earlier work

SMILES: CCCCCCCCCCCCCCCC(=O)OC1C(O)C(O)C(O)C(O)C1O (stereo not shown) [myo-inositol-5 (or 6)-palmitate]
- % Inhibition (specific phospholipase C inhibition) ([1]; Conc. 0.122 mM): 7%
- % Inhibition (specific phospholipase C inhibition) ([1]; Conc. 1.22 mM): 55%

SMILES: CCCCCCCCCCCCNC(=O)OC1C(O)C(O)C(O)C(O)C1O (stereo not shown) [myo-inositol-6 (or 5)-dodecanecarbamate]
- % Inhibition (specific phospholipase C inhibition) ([1]; Conc. 0.8 mM): 16%

SMILES: c1ccc2c(c1)Nc1ccccc1S2 [phenothiazine]
- inhibition of phospholipase C (phospholipase C): inhibited
